In patent publication US12590123B2, “Compounds and methods for treating cancer, viral infections, and allergic conditions” (Washington University, priority 2019, dated 2026):
Where two headings read alike, the source gives them in different places.

Assays:
Type in all cases: biochemical
[1] = target: T1, recombinant HGFA serine protease domain (Homo sapiens, UniProt Q04756); assay: Fluorescent kinetic enzyme assay of HGFA activity (Boc-QLR-AMC)
T1 construct: His6 tag (N); seven amino acid spacer plus TEV cleavage site (N); made in house; host or cells: High 5 insect cells (baculovirus; Sf9 for virus production)
T1 sequence (Q04756 373-655): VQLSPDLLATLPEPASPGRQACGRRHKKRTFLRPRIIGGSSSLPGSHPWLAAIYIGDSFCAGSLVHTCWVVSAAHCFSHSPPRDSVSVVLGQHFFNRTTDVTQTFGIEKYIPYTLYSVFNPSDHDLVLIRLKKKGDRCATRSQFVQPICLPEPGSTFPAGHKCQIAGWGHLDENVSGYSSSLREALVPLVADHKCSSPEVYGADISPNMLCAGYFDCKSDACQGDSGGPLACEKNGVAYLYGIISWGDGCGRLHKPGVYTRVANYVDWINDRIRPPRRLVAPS
Text: The compounds prepared in Examples 1 to 8 were subjected to a series of inhibitions studies. The compounds were first tested in an HGFA enzymatic assay using the fluorogenic substrate Boc-QLR-AMC with a recombinant form of the HGFA serine protease domain.
This PCR product was cloned into the SfoI-HindIII sites of a modified pFastBac HT baculovirus expression vector (Addgene, Cambridge, MA). This vector contains a six amino His tag followed by a seven amino spacer and a seven amino acid TEV cleavage site placed immediately downstream of the honey bee melittin signal peptide. Using a modified Bac to Bac Expression System (Life Technologies, Carlsbad, CA), recombinant HGFA bacmids were obtained by transforming DH10Bac Escherichia coli cells. To obtain HGFA containing baculovirus, purified bacmids were transfected into Sf9 insect cells. After 5 days in culture at 27° C., media was harvested from transfected Sf9 cells. This media was used to prepare baculovirus infected insect cells (BIICs). These BIIICs were used to infect High 5 insect cells. Four days post infection, media was harvested, and recombinant protein was prepared as follows. Media was chilled to 4° C. and spun at 4000×g for 20 minutes (all subsequent steps were performed at 4° C. unless noted). Clarified media was passed first through a Whatman GF/B 1 um (#1821-047, GE Healthcare Life Sciences, Piscataway, NJ) and then a 0.22 μm PES membrane (#99955, TPP Techno Plastic Products AG, Trasadingen, Switzerland) and then concentrated using a Pall Centramate tangential flow system and Centramate T-series Cassette (#OS010T12, Pall Corporation, Port Washington, NY). Concentrated media was then buffer exchanged in two steps, five volumes of 50 mM Na-phosphate, 500 mM NaCl, pH 6.2, followed by five volumes of 50 mM Na-phosphate, 500 mM NaCl, pH 7.5. […] After mixing this slurry for 12 hours, nickel agarose beads were allowed to settle by gravity and then loaded into a column. Beads were washed with buffer (25 mM Na-phosphate, 500 mM NaCl, 25 mM imidazole, pH 8) and the bound protein eluted using (25 mM Na-phosphate, 500 mM NaCl, 250 mM imidazole, pH 8). Using a Amicon Ultra-4 Centrifugal filters (#UFC801008, Merck Millipore, Ltd., Tullagreen, Ireland), peak protein fractions were concentrated and run over a Superdex-200 10/300 GL column (GE Healthcare Life Sciences, Piscataway, NJ) in 10 mM Tris, 200 mM NaCl, 0.2 mM EDTA, pH 8. HGFA containing fractions were pooled, concentrated, made 50% glycerol, and stored at minus 20° C. Protein was quantitated using a modified Lowry protein assay (#500-0006, Bio-Rad Laboratories, Hercules, CA) and specific activity determined using Boc-QLR-AMC substrate.
Fluorescent kinetic enzyme assays of HGFA, matriptase, and hepsin activity: Compounds (0-20 μM final concentration in reaction) were diluted in DMSO (2% DMSO final concentration in reaction) and then mixed with either recombinant HGFA serine protease domain, matriptase (#3946-SE-010, R&D Systems, Minneapolis, Minnesota), or activated hepsin* (#4776-SE-010, R&D Systems, Minneapolis, Minnesota) in black 384 well plates (Corning #3575. Coming, NY). The final assay concentration for HGFA, matriptase, and hepsin, were 6.25 nM, 0.2 nM, and 0.3 nM, respectively in TNC buffer (25 mM Tris, 150 mM NaCl, 5 mM CaCl2, 0.01% Triton X-100, pH 8). After thirty minutes of incubation at room temperature, Boc-QLR-AMC substrate was added (HGFA assay) or Boc-QAR-AMC substrate (matriptase, and hepsin assays). Fluorescence (excitation at 380 nm and emission at 460 nm) was kinetically measured at room temperature over a 1 hour time period using a Biotek Synergy 2 plate reader (Winnoski, VT). From a plot of the mean reaction velocity versus the inhibitor concentration, a non-linear four parameter curve fit was performed using GraphPad Prism (GraphPad Software, San Diego, CA) to determine inhibitor IC50s. The IC50 values were determined from the average of three or more separate experimental determinations. […]

activated hepsin = target: T2, activated hepsin (Homo sapiens, UniProt P05981); assay: Fluorescent kinetic enzyme assay of hepsin activity (Boc-QAR-AMC)
T2 construct: purchased R&D Systems 4776-SE-010
T2 sequence (P05981 163-417 limits assumed): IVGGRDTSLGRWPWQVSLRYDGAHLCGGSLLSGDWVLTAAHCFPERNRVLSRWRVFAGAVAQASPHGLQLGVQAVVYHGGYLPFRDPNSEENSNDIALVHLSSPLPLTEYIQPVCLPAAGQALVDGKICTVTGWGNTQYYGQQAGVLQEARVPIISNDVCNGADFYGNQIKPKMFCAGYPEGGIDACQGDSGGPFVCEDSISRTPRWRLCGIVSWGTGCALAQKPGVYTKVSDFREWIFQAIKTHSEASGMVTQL
T2 sequence (P05981 1-162 partner limits assumed): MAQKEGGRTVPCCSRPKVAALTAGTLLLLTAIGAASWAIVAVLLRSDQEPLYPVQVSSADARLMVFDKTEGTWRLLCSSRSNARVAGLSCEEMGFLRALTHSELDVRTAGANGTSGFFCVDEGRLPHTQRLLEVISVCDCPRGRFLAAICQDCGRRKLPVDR
Method: (§1) After thirty minutes of incubation at room temperature, Boc-QLR-AMC substrate was added (HGFA assay) or Boc-QAR-AMC substrate (matriptase, and hepsin assays). […] From a plot of the mean reaction velocity versus the inhibitor concentration, a non-linear four parameter curve fit was performed using GraphPad Prism (GraphPad Software, San Diego, CA) to determine inhibitor IC50s. The IC50 values were determined from the average of three or more separate experimental determinations. Apparent Ki values were calculated using the Cheng and Prusoff equation (Ki=IC50/(1+[S]/Km).
(§2) Inhibitors were pre-incubated with protease followed by the addition of the substrate. Inhibition of substrate proteolysis derived fluorescence was monitored kinetically over a period of one hour.

matriptase = target: T3, matriptase (Homo sapiens, UniProt Q9Y5Y6); assay: Fluorescent kinetic enzyme assay of matriptase activity (Boc-QAR-AMC); settings: Table 2; read-out: Matriptase (IC50 nM)
T3 construct: purchased R&D Systems 3946-SE-010
T3 sequence (Q9Y5Y6 615-855 limits assumed): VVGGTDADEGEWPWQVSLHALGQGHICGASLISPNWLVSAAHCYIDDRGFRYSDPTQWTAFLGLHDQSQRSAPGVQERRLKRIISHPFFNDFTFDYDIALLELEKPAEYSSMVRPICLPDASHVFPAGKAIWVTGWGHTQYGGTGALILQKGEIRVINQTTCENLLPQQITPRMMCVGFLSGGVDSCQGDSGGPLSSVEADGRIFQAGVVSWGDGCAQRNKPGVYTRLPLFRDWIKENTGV
Method: as §1, §2

[2] = Table 3, average of three experiments, read-out: HGFA IC50
[3] = Example 12, read-out: IC50 for hepsin
[4] = Table 2, read-out: Hepsin (IC50 nM)
[5] = Table 2, read-out: HGFA (IC50 nM)

SMILES	IC50 [1, 2] [nM]	IC50 (activated hepsin; [3]) [nM]	IC50 (activated hepsin; [4]) [nM]	IC50 [1, 5] [nM]	IC50 (matriptase) [nM]
CC(C)C[C@H](NC(=O)OC1(c2ccccc2)CCNCC1)C(=O)N[C@@H](CCCNC(=N)N)C(=O)c1nc2ccccc2s1 [Compound 8a, 4-phenylpiperidin-4-yl ((S)-1-(((S)-1-(benzo[d]thiazol-2-yl)-5-guanidino-1-oxopentan-2-yl)amino)-4-methyl-1-oxopentan-2-yl)carbamate]	780	–	–	–	–
CC(C)C[C@H](NC(=O)OC(c1ccccc1)C1CCNCC1)C(=O)N[C@@H](CCCNC(=N)N)C(=O)c1nc2ccccc2s1 (stereo partly drawn) [Compound 11a, phenyl(piperidin-4-yl)methyl ((S)-1-(((S)-1-(benzo[d]thiazol-2-yl)-5-guanidino-1-oxopentan-2-yl)amino)-4-methyl-1-oxopentan-2-yl)carbamate]	14000	8	–	–	–
CC(C)C[C@H](NC(=O)OC(Cc1ccccc1)C1CCNCC1)C(=O)N[C@@H](CCCNC(=N)N)C(=O)c1nc2ccccc2s1 (stereo partly drawn) [Compound 11b, 2-phenyl-1-(piperidin-4-yl)ethyl ((S)-1-(((S)-1-(benzo[d]thiazol-2-yl)-5-guanidino-1-oxopentan-2-yl)amino)-4-methyl-1-oxopentan-2-yl)carbamate]	6000	2	–	–	–
CC1CN(CC2CCN(Cc3ccccc3)CC2)C(=O)N(c2cccc(C(=N)N)c2)C1 (centres unmarked) [SRI 31215, reference compound]	20000	–	–	–	–
CC(C)C[C@@H]1NC(=O)[C@@H](N)CCCCNC(=O)C[C@@H](C(=O)N[C@@H](CCCNC(=N)N)C(=O)c2nc3ccccc3s2)NC1=O [VD1185, (2S,5S,13S)-13-amino-N—((S)-1-(benzo[d]thiazol-2-yl)-5-guanidino-1-oxopentan-2-yl)-2-isobutyl-3,7,14-trioxo-1,4,8-triazacyclotetradecane-5-carboxamide]	–	–	92	> 20000	1.1
CC(C)C[C@@H]1NC(=O)[C@@H](N)CCCCNC(=O)CC[C@@H](C(=O)N[C@@H](CCCNC(=N)N)C(=O)c2nc3ccccc3s2)NC1=O [VD2056, (2S,5S,14S)-14-amino-N—((S)-1-(benzo[d]thiazol-2-yl)-5-guanidino-1-oxopentan-2-yl)-2-isobutyl-3,8,15-trioxo-1,4,9-triazacyclopentadecane-5-carboxamide]	–	–	11.9	> 20000	11.5
CC(=O)N[C@H]1CCCCNC(=O)CC[C@@H](C(=O)N[C@@H](CCCNC(=N)N)C(=O)c2nc3ccccc3s2)NC(=O)[C@H](CCCNC(=N)N)NC1=O [VD2109, (2S,5S,14S)-14-acetamido-N—((S)-1-(benzo[d]thiazol-2-yl)-5-guanidino-1-oxopentan-2-yl)-2-(3-guanidinopropyl)-3,8,15-trioxo-1,4,9-triazacyclopentadecane-5-carboxamide]	–	–	0.08	5050	0.13
CC(=O)N[C@H]1CCCCNC(=O)CCC(C(=O)N[C@H](CCCNC(=N)N)C(=O)c2nc3ccccc3s2)NC(=O)[C@H](CCCNC(=N)N)NC1=O (some centres unmarked) [VD2109A]	–	–	0.14	4090	0.19
CC(=O)N[C@H]1Cc2ccc(cc2)OC/C=C\C[C@@H](C(=O)NC(CCCNC(=N)N)C(=O)c2nc3ccccc3s2)NC(=O)[C@H](CC(C)C)NC1=O (some centres unmarked) [VD4010A]	–	–	1.14	197	31.6
C=CCNC(=O)CC[C@H](NC(=O)[C@H](CC(C)C)NC(=O)[C@H](Cc1ccc(OCC=C)cc1)NC(C)=O)C(=O)N[C@@H](CCCNC(=N)N)C(=O)c1nc2ccccc2s1 [VD4022, (S)-2-((S)-2-((S)-2-acetamido-3-(4-(allyloxy)phenyl)propanamido)-4-methylpentanamido)-N5-allyl-N1-((S)-1-(benzo[d]thiazol-2-yl)-5-guanidino-1-oxopentan-2-yl)pentanediamide]	–	–	10.1	4750	19.1
CC(=O)N[C@H]1Cc2ccc(cc2)OC/C=C\CNC(=O)C[C@@H](C(=O)N[C@@H](CCCNC(=N)N)C(=O)c2nc3ccccc3s2)NC(=O)[C@H](CC(C)C)NC1=O [VD4054, (10S,13S,16S,Z)-16-acetamido-N—((S)-1-(benzo[d]thiazol-2-yl)-5-guanidino-1-oxopentan-2-yl)-13-isobutyl-8,12,15-trioxo-2-oxa-7,11,14-triaza-1(1,4)-benzenacycloheptadecaphan-4-ene-10-carboxamide]	–	–	0.643	–	72.6
CC(=O)N[C@H]1Cc2ccc(cc2)OC/C=C\CNC(=O)C[C@@H](C(=O)N[C@H](CCCNC(=N)N)C(=O)c2nc3ccccc3s2)NC(=O)[C@H](CC(C)C)NC1=O [VD4054A]	–	–	14	> 20000	76.6
CC(=O)N[C@H]1Cc2ccc(cc2)OCCCC[C@@H](C(=O)N[C@H](CCCNC(=N)N)C(=O)c2nc3ccccc3s2)NC(=O)[C@H](Cc2ccccc2)NC1=O [VD4111A]	–	–	12.7	3280	330
CC(=O)N[C@@H](Cc1ccc(O)c([N+](=O)[O-])c1)C(=O)N[C@@H](CC(C)C)C(=O)N[C@@H](Cc1ccc(Br)cc1)C(=O)N[C@H](CCCNC(=N)N)C(=O)c1nc2ccccc2s1 [VD4112A]	–	–	23.9	3510	111
CC(=O)N[C@@H](Cc1ccc(O)c([N+](=O)[O-])c1)C(=O)N[C@@H](CC(C)C)C(=O)N[C@@H](Cc1ccc(Br)cc1)C(=O)N[C@@H](CCCNC(=N)N)C(=O)c1nc2ccccc2s1 [VD4112]	–	–	1.15	14000	9.49
